Reference: PubChem BioAssay (NCI)
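Interpolation was linear, between the two tested concentrations surrounding the appropriate level; five concentrations were tested over 48 hours in 96-well plates. Definition used: TGI = concentration required for complete inhibition of growth.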

Experiments:
Test in all cases: NCI anticancer screen, dose series, 48 h
786-0 renal = tested on: 786-0 renal
A498 renal = tested on: A498 renal
A549 NSCLC = tested on: A549 NSCLC
ACHN renal = tested on: ACHN renal
CAKI-1 renal = tested on: CAKI-1 renal
CCRF-CEM leukemia = tested on: CCRF-CEM leukemia
COLO 205 colon = tested on: COLO 205 colon
DU-145 prostate = tested on: DU-145 prostate
EKVX NSCLC = tested on: EKVX NSCLC
HCC-2998 colon = tested on: HCC-2998 colon
HCT-116 colon = tested on: HCT-116 colon
HCT-15 colon = tested on: HCT-15 colon
HL-60(TB) leukemia = tested on: HL-60(TB) leukemia
HOP-62 NSCLC = tested on: HOP-62 NSCLC
HOP-92 NSCLC = tested on: HOP-92 NSCLC
HS 578T breast = tested on: HS 578T breast
HT29 colon = tested on: HT29 colon
IGROV1 ovarian = tested on: IGROV1 ovarian
K-562 leukemia = tested on: K-562 leukemia
KM12 colon = tested on: KM12 colon
LOX IMVI melanoma = tested on: LOX IMVI melanoma
M14 melanoma = tested on: M14 melanoma
MALME-3M melanoma = tested on: MALME-3M melanoma
MCF7 breast = tested on: MCF7 breast
MDA-MB-231 breast = tested on: MDA-MB-231 breast
MDA-MB-435 = tested on: MDA-MB-435
MDA-N = tested on: MDA-N
MOLT-4 leukemia = tested on: MOLT-4 leukemia
NCI-H226 lung = tested on: NCI-H226 lung
NCI-H23 lung = tested on: NCI-H23 lung
NCI-H460 lung = tested on: NCI-H460 lung
NCI-H522 lung = tested on: NCI-H522 lung
NCI/ADR-RES ovarian = tested on: NCI/ADR-RES ovarian
OVCAR-3 ovarian = tested on: OVCAR-3 ovarian
OVCAR-4 ovarian = tested on: OVCAR-4 ovarian
OVCAR-5 ovarian = tested on: OVCAR-5 ovarian
OVCAR-8 ovarian = tested on: OVCAR-8 ovarian
PC-3 prostate = tested on: PC-3 prostate
RPMI-8226 leukemia = tested on: RPMI-8226 leukemia
RXF 393 renal = tested on: RXF 393 renal
SF-268 CNS = tested on: SF-268 CNS
SF-295 CNS = tested on: SF-295 CNS
SF-539 CNS = tested on: SF-539 CNS
SK-MEL-2 melanoma = tested on: SK-MEL-2 melanoma
SK-MEL-28 melanoma = tested on: SK-MEL-28 melanoma
SK-MEL-5 melanoma = tested on: SK-MEL-5 melanoma
SK-OV-3 ovarian = tested on: SK-OV-3 ovarian
SN12C renal = tested on: SN12C renal
SNB-19 CNS = tested on: SNB-19 CNS
SNB-75 CNS = tested on: SNB-75 CNS
SR leukemia = tested on: SR leukemia
SW-620 colon = tested on: SW-620 colon
T-47D breast = tested on: T-47D breast
TK-10 renal = tested on: TK-10 renal
U251 CNS = tested on: U251 CNS
UACC-257 melanoma = tested on: UACC-257 melanoma
UO-31 renal = tested on: UO-31 renal
UACC-62 melanoma = tested on: UACC-62 melanoma

Compound: O=C1OCC=C1COC1OC(CO)C(O)C(O)C1O (stereo not given)
- TGI (786-0 renal): > 100 µM
- TGI (A498 renal): > 100 µM
- TGI (A549 NSCLC): > 100 µM
- TGI (ACHN renal): > 100 µM
- TGI (CAKI-1 renal): > 100 µM
- TGI (CCRF-CEM leukemia): > 100 µM
- TGI (COLO 205 colon): > 100 µM
- TGI (DU-145 prostate): > 100 µM
- TGI (EKVX NSCLC): > 100 µM
- TGI (HCC-2998 colon): > 100 µM
- TGI (HCT-116 colon): > 100 µM
- TGI (HCT-15 colon): > 100 µM
- TGI (HL-60(TB) leukemia): > 100 µM
- TGI (HOP-62 NSCLC): > 100 µM
- TGI (HOP-92 NSCLC): > 100 µM
- TGI (HS 578T breast): > 100 µM
- TGI (HT29 colon): > 100 µM
- TGI (IGROV1 ovarian): > 100 µM
- TGI (K-562 leukemia): > 100 µM
- TGI (KM12 colon): > 100 µM
- TGI (LOX IMVI melanoma): > 100 µM
- TGI (M14 melanoma): > 100 µM
- TGI (MALME-3M melanoma): > 100 µM
- TGI (MCF7 breast): > 100 µM
- TGI (MDA-MB-231 breast): > 100 µM
- TGI (MDA-MB-435): > 100 µM
- TGI (MDA-N): > 100 µM
- TGI (MOLT-4 leukemia): > 100 µM
- TGI (NCI-H226 lung): > 100 µM
- TGI (NCI-H23 lung): > 100 µM
- TGI (NCI-H460 lung): > 100 µM
- TGI (NCI-H522 lung): 39.3 µM
- TGI (NCI/ADR-RES ovarian): > 100 µM
- TGI (OVCAR-3 ovarian): > 100 µM
- TGI (OVCAR-4 ovarian): > 100 µM
- TGI (OVCAR-5 ovarian): > 100 µM
- TGI (OVCAR-8 ovarian): > 100 µM
- TGI (PC-3 prostate): > 100 µM
- TGI (RPMI-8226 leukemia): > 100 µM
- TGI (RXF 393 renal): > 100 µM
- TGI (SF-268 CNS): > 100 µM
- TGI (SF-295 CNS): > 100 µM
- TGI (SF-539 CNS): > 100 µM
- TGI (SK-MEL-2 melanoma): > 100 µM
- TGI (SK-MEL-28 melanoma): > 100 µM
- TGI (SK-MEL-5 melanoma): > 100 µM
- TGI (SK-OV-3 ovarian): > 100 µM
- TGI (SN12C renal): > 100 µM
- TGI (SNB-19 CNS): > 100 µM
- TGI (SNB-75 CNS): > 100 µM
- TGI (SR leukemia): > 100 µM
- TGI (SW-620 colon): > 100 µM
- TGI (T-47D breast): > 100 µM
- TGI (TK-10 renal): > 100 µM
- TGI (U251 CNS): > 100 µM
- TGI (UACC-257 melanoma): > 100 µM
- TGI (UO-31 renal): > 100 µM

Compound: CCN(CC)CCOc1ccc(N2C(=O)c3cccc4cc([N+](=O)[O-])cc(c34)C2=O)cc1
- TGI (786-0 renal): 18.3 µM
- TGI (A498 renal): 25.4 µM
- TGI (A549 NSCLC): 19.8 µM
- TGI (ACHN renal): 15.9 µM
- TGI (CAKI-1 renal): 26 µM
- TGI (CCRF-CEM leukemia): 30.8 µM
- TGI (COLO 205 colon): 64.2 µM
- TGI (DU-145 prostate): 24.3 µM
- TGI (EKVX NSCLC): 35.4 µM
- TGI (HCC-2998 colon): 25 µM
- TGI (HCT-116 colon): 20.5 µM
- TGI (HCT-15 colon): 26.1 µM
- TGI (HL-60(TB) leukemia): 28.2 µM
- TGI (HOP-62 NSCLC): 15.4 µM
- TGI (HOP-92 NSCLC): 44.1 µM
- TGI (HS 578T breast): 42.5 µM
- TGI (HT29 colon): 18.3 µM
- TGI (IGROV1 ovarian): 22.3 µM
- TGI (KM12 colon): 64.5 µM
- TGI (LOX IMVI melanoma): 20.4 µM
- TGI (M14 melanoma): 25.3 µM
- TGI (MALME-3M melanoma): 26.9 µM
- TGI (MCF7 breast): 23.5 µM
- TGI (MDA-MB-231 breast): 37.6 µM
- TGI (MDA-MB-435): 26.6 µM
- TGI (MDA-N): 30.3 µM
- TGI (MOLT-4 leukemia): 11.3 µM
- TGI (NCI-H226 lung): 19 µM
- TGI (NCI-H23 lung): 26.5 µM
- TGI (NCI-H460 lung): 15.5 µM
- TGI (NCI-H522 lung): 19.7 µM
- TGI (NCI/ADR-RES ovarian): 60 µM
- TGI (OVCAR-4 ovarian): 31 µM
- TGI (OVCAR-5 ovarian): 20.9 µM
- TGI (OVCAR-8 ovarian): 34.5 µM
- TGI (PC-3 prostate): 35.2 µM
- TGI (SF-268 CNS): 27.1 µM
- TGI (SF-295 CNS): 21.1 µM
- TGI (SF-539 CNS): 25.1 µM
- TGI (SK-MEL-2 melanoma): 33.7 µM
- TGI (SK-MEL-28 melanoma): 25.3 µM
- TGI (SK-MEL-5 melanoma): 26.6 µM
- TGI (SN12C renal): 40.9 µM
- TGI (SNB-19 CNS): 30.3 µM
- TGI (SNB-75 CNS): 35.1 µM
- TGI (SR leukemia): 32.8 µM
- TGI (SW-620 colon): 25.8 µM
- TGI (T-47D breast): 39.3 µM
- TGI (TK-10 renal): 26 µM
- TGI (U251 CNS): 22.6 µM
- TGI (UACC-257 melanoma): 27 µM
- TGI (UO-31 renal): 21.7 µM

Compound: COc1cc(C(=O)NC(CCN)(c2ccccc2)c2ccccc2)cc(OC)c1OC
- TGI (786-0 renal): > 31.6 µM
- TGI (A498 renal): 17.5 µM
- TGI (A549 NSCLC): > 31.6 µM
- TGI (ACHN renal): > 31.6 µM
- TGI (CAKI-1 renal): 87.6 µM
- TGI (COLO 205 colon): 19 µM
- TGI (DU-145 prostate): > 31.6 µM
- TGI (EKVX NSCLC): > 31.6 µM
- TGI (HCC-2998 colon): 19.8 µM
- TGI (HCT-116 colon): > 95.3 µM
- TGI (HCT-15 colon): > 31.6 µM
- TGI (HL-60(TB) leukemia): 18.5 µM
- TGI (HOP-62 NSCLC): > 31.6 µM
- TGI (HOP-92 NSCLC): 25.5 µM
- TGI (HS 578T breast): > 92.6 µM
- TGI (HT29 colon): 28.3 µM
- TGI (IGROV1 ovarian): > 31.6 µM
- TGI (K-562 leukemia): 23.1 µM
- TGI (KM12 colon): > 31.6 µM
- TGI (LOX IMVI melanoma): > 31.6 µM
- TGI (M14 melanoma): 19.1 µM
- TGI (MALME-3M melanoma): 18.4 µM
- TGI (MCF7 breast): > 31.6 µM
- TGI (MDA-MB-231 breast): > 31.5 µM
- TGI (MDA-MB-435): > 31.6 µM
- TGI (MDA-N): > 100 µM
- TGI (MOLT-4 leukemia): 21.5 µM
- TGI (NCI-H226 lung): 98.9 µM
- TGI (NCI-H23 lung): > 31.6 µM
- TGI (NCI-H460 lung): > 31.6 µM
- TGI (NCI-H522 lung): > 100 µM
- TGI (NCI/ADR-RES ovarian): > 100 µM
- TGI (OVCAR-3 ovarian): > 100 µM
- TGI (OVCAR-4 ovarian): > 31.6 µM
- TGI (OVCAR-5 ovarian): > 100 µM
- TGI (OVCAR-8 ovarian): > 31.6 µM
- TGI (PC-3 prostate): > 100 µM
- TGI (RXF 393 renal): 27.6 µM
- TGI (SF-268 CNS): > 31.6 µM
- TGI (SF-295 CNS): > 31.6 µM
- TGI (SF-539 CNS): > 100 µM
- TGI (SK-MEL-2 melanoma): > 100 µM
- TGI (SK-MEL-28 melanoma): 21.4 µM
- TGI (SK-MEL-5 melanoma): 18 µM
- TGI (SK-OV-3 ovarian): > 31.6 µM
- TGI (SN12C renal): > 31.6 µM
- TGI (SNB-19 CNS): > 100 µM
- TGI (SNB-75 CNS): 30.4 µM
- TGI (SR leukemia): 24 µM
- TGI (SW-620 colon): > 31.6 µM
- TGI (T-47D breast): > 31.6 µM
- TGI (TK-10 renal): > 31.6 µM
- TGI (U251 CNS): > 100 µM
- TGI (UACC-257 melanoma): 22.3 µM
- TGI (UACC-62 melanoma): > 31.6 µM
- TGI (UO-31 renal): > 64.4 µM
